Several values for one entry are separate records, joined by “and”; a condition that tells them apart may be missing. Equal values may be shown once. Where a name gives a salt, the structure may show the parent alone. Read-outs that look alike come from different tables or passages of the source.
Tests used:
[1] = Half-crystallisation time (t1/2), isothermal DSC; assay type: physicochemical
Method: A DSC 2 Perkin Elmer scanning calorimeter was used.
10 mg of the sample of polymer material are placed in a capsule and introduced into the apparatus, wherein the sample is quickly heated to a temperature of 290° C. at which it is maintained during 1 minute.
The molten polymer material is then very quickly cooled by means of liquid air (at a rate of 320° C. per minute) until the crystallisation temperature is reached.
The crystallisation isotherm is registered on a temperature-time graph and the peak appearing on the registered isotherm is taken as the half-crystallisation time (t1/2).

[2] = Degradation constant K (melt degradation performance); assay type: physicochemical; design: unit not given here; conditions: 1% salt in PET, 2-roll mill 270 °C 5 min; molten state 290 °C
Method: The melt degradation performance is a measure of the extent of degradation under molten conditions. A convenient method of quantifying the performance is by measuring the "K value". A method for determining this value in the molten state using an Instron Capillary rheometer is given in a paper by J. Devaux et al in Makromol.
This method is carried out on samples prepared by reacting the salt with the polyester on a 2 roll-mill at a temperature above the melting point of the polyester for 5 minutes and then pressing the product obtained into a 2 mm thick sheet using the same temperature for 3 minutes before cooling to room temperature. The method is described for polyethylene terephthalate but can be readily adapted for other polyesters.
For polyethylene terephthalate the K value in the presence of salt should be less than 60.

[3] = ΔT = Tc(cooling) - Tn(heating), DSC; assay type: physicochemical; conditions: 1% salt in PET, 2-roll mill 270 °C 5 min; 10 °C/minute
Method: An alternative method for assessing the effectiveness of nucleation of an additive is to compare the difference between the value of the crystallisation peak on cooling (Tc) with that on heating (Tn) for a composition containing an ionisable salt. The value obtained from this comparison, Tc(cooling) -Tn(heating) is termed ΔT. […] Samples of polyester together with 1% of the salt under test were mixed in a 2-roll mill at 270° C. for 5 minutes. The sample produced was pressed into 2 mm thick sheets at 270° C. for 3 minutes and then cooled to room temperature. 10 mg of the sample was placed in a capsule and rapidly heated to 290° C. After maintaining this temperature for 1 minute the capsule was quenched in water. The crystallisation peak temperatures on heating (Tn) and cooling (Tc) were determined using heating and cooling rates of 10° C./minute on a Perkin Elmer DSC 2 machine.

[4] = cited from earlier work
[5] = Solubility parameter δ of the acid; conditions: product for the acid
[6] = Crystallisation peak temperature on heating (Tn), DSC; assay type: physicochemical; conditions: for Tn(composition)-Tn(polyester): PET I.V. 0.73 + 1% salt, 2-roll mill 300 °C 2 min, 10 °C/minute; for Tn (16° C./min): 1% salt deposited from solution on PET
Method: In one such DSC technique the crystallisation peak temperature difference, Tn(composition)--Tn(polyester) is determined by measuring the crystallisation peak temperatures on heating for the composition in comparison with the polyester of the composition not containing the ionisable salt. The detailed procedure is as follows. Compositions were prepared from the polyester and the additive by mixing on a 2-roll mill at 300° C. for 2 minutes. The sample was taken from the mill and pressed into a film in a compression moulding machine. 10 mg samples of the composition were placed in a capsule, rapidly heated to 290° C. and maintained at that temperature for 1 minute. The capsule was then dropped into water to quench the polymer and prevent crystallisation. The sample was then placed in a Perkin Elmer DSC 2 machine and heated at a rate of 10° C./minute until reaching a temperature of 290° C. The crystallisation peak temperature observed on this heating cycle is recorded and compared with the value for the polyester not containing the additive.
Samples of polyethylene terephthalate (I.V. =0.73) containing 1% of the salts listed in Table 2 were prepared by compounding at 300° C. on a 2-roll mill for 2 minutes. The samples were evaluated to determine Tn(composition-Tn(polyester), the total number of end groups, the number of carboxylate groups and the number of hydroxyl and carboxyl groups.
The salts listed in Table 3 were deposited from solution on the surface of polyethylene terephthalate chip to give a concentration of 1% by weight of salt. The product was dried under vcuum at 96° C. for 3 hours. The compositions were pressed into film using a temperature of 280° C. for 1 minute. The DSC measurements were made after quenching from the melt to prevent crystallisation and using a heating rate of 16° C./minute.
1% by weight of the sodium salt of saccharin was deposited on the surface of granules of a polyethylene terephthalate homopolymer of I.V. =0.73 by evaporating an aqueous solution of the salt from the granules by drying at 96° C. under vacuum for 3 hours. The granules obtained were compression moulded into film by pressing at 280° C. for 60 second. The film was used for measurements of Tn at a heating rate of 16° C./minute.
The effect of the salts listed in Table 4 was determined by taking granules of a polymer of poly(ethylene terephthalate) homopolymer having an intrinsic viscosity of 0.73 and evaporating a solution of the salt in methanol or water from the surface of the granules by drying at 96° C. under vacuum for 3 hours. The proportions of polymer and solution used were such as to give a concentration of 1% of salt by weight of the final dry composition. The granules obtained were compression-moulded into film at 280° C. for various periods of time. The film was used for measurement of Tn as hereinbefore described.
Two samples of polyethylene terephthalate chip (I.V. =0.73) were coated from solution with 1% of the sodium salt of o-hydroxybenzoic acid and the disodium salt of the same acid respectively. After drying for 3 hours in a vacuum oven at 95° C. films were prepared by pressing the products for 1 minute at 280° C.

End group determination = assay type: physicochemical
Method: The numbers of hydroxyl and carboxyl groups were also determined according to the procedure given in this paper.
[…] The samples were evaluated to determine Tn(composition-Tn(polyester), the total number of end groups, the number of carboxylate groups and the number of hydroxyl and carboxyl groups.

[7] = Degradation constant K (melt degradation performance); assay type: physicochemical; design: unit not given here; conditions: 1% salt deposited from solution on PET (Examples 13-15)
[8] = Crystallisation peak temperature on heating (Tn), DSC, block copolymer; assay type: physicochemical; conditions: 1% salt from solution on block copolymer; heating rate 16 °C/minute
Method: A block copolymer containing 5% by weight of polyethylene glycol units of molecular weight 1540 in chip form was blended with a solution of the sodium salt of o-chlorobenzoic acid to give a salt concentration of 1% by weight of the polyester. Samples were prepared for DSC analysis using the procedure of Example 15.
The polymer used in Example 16 and 1% of the disodium salt of o-hydroxy benzoic acid were compounded on a 2-roll mill at 270° C. for 2 minutes. […] (measured at a heating rate of 10° C./minute).

[9] = 110 °C, 1% salt in PET, 2-roll mill 270 °C 5 min, after melting 1 minute at 290 °C
[10] = 120 °C, 1% salt in PET, 2-roll mill 270 °C 5 min, after melting 1 minute at 290 °C
[11] = acid from which the salt is derived, in water
[12] = PET I.V. 0.73 + 1% salt, 2-roll mill 300 °C 2 min
[13] = pressed 280 °C 1 minute, heating rate 16 °C/minute
[14] = 1% salt deposited from solution on PET chip, pressed 280 °C 1 minute

Row | t1/2 (sec) 110° C. [1, 9] [s] | t1/2 (sec) 120° C. [1, 10] [s] | δ × pKH.sbsb.2O [5] | Structure (SMILES) | K [2] | ΔT [3] [°C] | pKH.sbsb.2O [4, 11] | further results
1 | 110 | 50 | 26 | O=C(O)c1c(O)cc(O)cc1O [2,4,6-dihydroxy benzoic acid] | 37 | 97 | 1.7 | 
2 | 60 | 35 | 34 | O=C(O)c1ccc(Cl)cc1Cl [2,4-dichlorobenzoic acid] | 65 | 109 | 2.8 | Tn(composition)-Tn(polyester) [6]: 23 °C; % of carboxylate end group (End group determination; [12]): 16.7%; End Groups --COOH (End group determination; [12]): 67 moles × 10^-6 g^-1; End Groups --OH (End group determination; [12]): 55 moles × 10^-6 g^-1; End Groups Carboxylate (End group determination; [12]): 32 moles × 10^-6 g^-1; End Groups Total from solution I.V. (End group determination; [12]): 192 moles × 10^-6 g^-1
3 |  |  |  | O=C(O)c1cc(O)ccc1O [2,5-dihydroxy benzoic acid] | 22 | 103 | 3 | t1/2 (sec) 110° C. [1]: 85 s; t1/2 (sec) 120° C. [1]: 48 s
4 | 65 | 40 | 29 | O=C(O)c1cc([N+](=O)[O-])ccc1Cl [2-chloro-5-nitrobenzoic acid] | 52 | 108 |  | pKH.sbsb.2O ([4]; water): 2.2
5 |  |  |  | O=S(=O)(O)c1ccccc1 [Sodium benzene sulphonate, reference compound] |  |  |  | Dissociation Constant ([4]; water): 2 × 10^-1; Tn [6]: 146 °C and 141.5 °C
6 |  |  |  | O=C(O)c1ccco1 [Sodium salt of 2-furoic acid] |  |  |  | Tn (16° C./min) [6, 13]: 127 °C; K [7]: 65; End Groups --COOH (End group determination; [14]): 29 moles × 10^-6 g^-1; End Groups --OH (End group determination; [14]): 62 moles × 10^-6 g^-1; End Groups Total from solution I.V. (End group determination; [14]): 121 moles × 10^-6 g^-1
7 |  |  |  | O=C(O)c1cccs1 [Sodium salt of 2-thiophencarboxylic acid] |  |  |  | Tn(comp.)-Tn(PET) (16° C./min) ([6]; 1% salt deposited from solution on PET chip, pressed 280 °C 1 minute, heating rate 16 °C/minute): 29 °C; Tn (16° C./min) [6, 13]: 112 °C; K [7]: 15; End Groups --COOH (End group determination; [14]): 24 moles × 10^-6 g^-1; End Groups --OH (End group determination; [14]): 59 moles × 10^-6 g^-1; End Groups Total from solution I.V. (End group determination; [14]): 145 moles × 10^-6 g^-1
8 | 165 | 55 | 54 | O=C(O)c1cccc(O)c1 [metra-hydroxy benzoic acid] | 86 | 91 | 3.9 | 
9 | 65 | 36 | 37 | O=C(O)c1ccccc1Cl [ortho-chlorobenzoic acid] | 32 | 108 |  | pKH.sbsb.2O ([4]; water): 3; Tn(composition)-Tn(polyester) [6]: 26 °C; Tn [8]: 102 °C; % of carboxylate end group (End group determination; [12]): 22%; End Groups --COOH (End group determination; [12]): 45 moles × 10^-6 g^-1; End Groups --OH (End group determination; [12]): 55 moles × 10^-6 g^-1; End Groups Carboxylate (End group determination; [12]): 37 moles × 10^-6 g^-1; End Groups Total from solution I.V. (End group determination; [12]): 167 moles × 10^-6 g^-1
10 |  |  |  | O=C(O)c1ccccc1O [ortho-hydroxy benzoic acid] | 26 | 105 |  | t1/2 (sec) 110° C. [1]: 80 s; t1/2 (sec) 120° C. [1]: 40 s; Tn (16° C./min) ([6]; pressed 280 °C 1 minute, heating rate 16 °C/minute, listed as sodium salt of o-hydroxybenzoic acid): 114 °C; K ([7]; listed as sodium salt of o-hydroxybenzoic acid): 26
11 | 70 | 38 | 50 | O=C(O)c1ccc(F)cc1 [para fluorobenzoic acid] | 60 | 104 | 4.1 | 
12 | 75 | 54 | 46 | O=C(O)c1ccc([N+](=O)[O-])cc1 [para-nitrobenzoic acid] | 79 | 102 |  | pKH.sbsb.2O ([4]; water): 3.4
13 |  |  |  | O=C1NS(=O)(=O)c2ccccc21 [sodium salt of saccharin] |  |  |  | Tn (16° C./min) [6, 13]: 112 °C; K [7]: 9

Row | Structure (SMILES) | t1/2 (sec) 110° C. [1, 9] [s] | t1/2 (sec) 120° C. [1, 10] [s] | δ × pKH.sbsb.2O [5] | K [2] | ΔT [3] [°C] | pKH.sbsb.2O [4, 11] | further results
14 | O=C(O)c1ccc(O)cc1O [2,4-dihydroxy benzoic acid] | 95 | 45 | 47 | 35 | 99 | 3.2 | 
15 | O=C(O)c1cc([N+](=O)[O-])cc([N+](=O)[O-])c1 [3,5-dinitrobenzoic acid] | 85 | 45 | 38 | 44 | 102 | 2.8 | 
16 | O=C(O)c1cccc(Cl)c1 [meta-chlorobenzoic acid] |  |  | 47 | 31 | 107 | 3.8 | t1/2 (sec) 110° C. [1]: 63 s; t1/2 (sec) 120° C. [1]: 40 s
17 | O=C(O)c1cccc([N+](=O)[O-])c1 [meta-nitrobenzoic acid] |  |  | 30 | 20 | 106 |  | t1/2 (sec) 110° C. [1]: 65 s; t1/2 (sec) 120° C. [1]: 45 s; pKH.sbsb.2O ([4]; water): 2.2
18 | O=C(O)c1ccc(Oc2ccccc2)cc1 [para-oxyphenylbenzoic acid] |  |  | 47 | 40 | 105 | 3.5 | t1/2 (sec) 110° C. [1]: 73 s; t1/2 (sec) 120° C. [1]: 38 s
